Patent US20220175850A1, “COMPOSITIONS AND METHODS FOR CANCER THERAPY” (priority 2019, published 2022)

Legend:
[1] = test system: triple negative breast cancer cells; assay: Tumor marker expression in animal model of triple negative breast cancer, supplement with or without chemotherapeutic drugs; format: in vivo, mice
Procedure: […] Animals were also treated with taxol, taxol and the supplement in combination, adriamycin, adriamycin and the supplement in combination, avastin, and avastin and the supplement in combination.
FIG. 9A depicts a typical study design for animal model studies of this phenomena. Three different supplement formulations were used that provided low (NFS), mid (NFM-containing 1.5 times the Se content of NFS), and high (NFH, containing twice the Se content of NFS) doses of selenium and fish oil. These supplement formulations were provided in combination with a chemotherapeutic drug (such as Taxol or Adriamycin).
As noted above, nutritional supplements can be provided that include different amounts of selenium (Se), and can also be provided with or used in combination with a chemotherapeutic agent.
CD24 and CD29 are markers that are commonly used to determine degree of stem cell character. […] Mice were also treated with taxol, taxol and the supplement in combination, adriamycin, adriamycin and the supplement in combination, avastin, and avastin and the nutritional supplement in combination. […] As in FIG. 9, nutritional supplements containing low, mid, and high amounts of selenium were provided in combination with either avastin or taxol.

[2] = test system: triple negative breast cancer cells; assay: as above; format: in vivo, mice; details: primary tumor; supplement at low, mid, high dose with Taxol or Adriamycin; drugs alone
[3] = test system: A549 human lung cancer sphere cells; assay: Marker protein expression in stem-cell like A549 sphere cells; format: cell-based
Source text: FIG. 7B depicts an exemplary Western blot of PD-L1 expression in stem-cell like sphere cells derived from A549 human lung cancer cells.

[4] = test system: HCC827GR cells; assay: Marker protein expression in Iressa-resistant HCC827GR lung cancer cells; format: cell-based, human
Source text: The HCC827GR cell line is a lung cancer cell line that is resistant to Iressa.

[5] = metastatic brain tumor site, different amounts of supplement in combination with Taxol, taxol alone
[6] = tumor, supplement at low, mid, high doses in combination with taxol or avastin, drug alone

`CC(=O)O[C@H]1C(=O)[C@@]2(C)[C@H]([C@H](OC(=O)c3ccccc3)[C@]3(O)C[C@H](OC(=O)[C@H](O)[C@@H](NC(=O)c4ccccc4)c4ccccc4)C(C)=C1C3(C)C)[C@]1(OC(C)=O)CO[C@@H]1C[C@@H]2O` [taxol] was tested, and the CD24 expression [1, 5] was “no apparent effect”, the CD29 expression [1, 5] was “no apparent effect” and the MMP-9 expression [1, 5] was “no apparent effect”. The VEGF expression [1, 5] was “no apparent effect”, the EGFR expression ([1]; tumor tissue, supplement with different amounts of selenium co-treated with taxol or avastin, drug alone) was “not impacted” and the PTEN expression [1, 6] was “increase induced by taxol”. The p-PTEN expression [1, 6] was “decrease induced by either taxol or avastin”, the p-STAT3 expression [1, 6] was “decrease induced by either taxol or avastin” and the PD-1 expression [2] was “increased slightly”. The PD-L1 expression [2] was “no apparent effect”.
“avastin: chemotherapeutic agent used in the animal tumor model” was tested, and the CXCR4 expression ([1]; tumor tissue, avastin alone or cotherapy with supplement at low, mid, high doses) was “little effect”, the p-PTEN expression [1, 6] was “decrease induced by either taxol or avastin” and the p-STAT3 expression [1, 6] was “decrease induced by either taxol or avastin”.
In the case of `COc1cccc2c1C(=O)c1c(O)c3c(c(O)c1C2=O)C[C@@](O)(C(=O)CO)C[C@@H]3O[C@H]1C[C@H](N)[C@H](O)[C@H](C)O1` [adriamycin], the PD-1 expression [2] is reported as “increased slightly” and the PD-L1 expression [2] is reported as “no apparent effect”.
For selenium, the p-HSP27 expression [3] was “not found” and the vimentin expression [3] was “not seen”.
`COc1cc2ncnc(Nc3ccc(F)c(Cl)c3)c2cc1OCCCN1CCOCC1` [Iressa] was tested, and the Axl expression ([4]; 24 hours of treatment, in either the absence or presence of Iressa) was “not reduced”, the Axl expression ([4]; 72 hours) was “no apparent effect” and the HSP90 expression ([4]; 72 hours) was “no apparent effect”. For the same compound, the PD-L1 expression ([4]; chemotherapy resistant cancer cells) was “has no effect”.
